Measured values from patent US20220184071A1, “GEPOTIDACIN FOR USE IN THE TREATMENT OF BACTERIAL URINARY TRACT INFECTIONS” (GlaxoSmithKline Intellectual Property Development Limited, priority 2019, published 2022).
Values after ≈ are worked out from the molar mass of the structure shown.

Columns and labels:
P. aeruginosa = test: MIC by CLSI agar dilution, Example 1 Method 2; type: cell-based, Pseudomonas aeruginosa; conditions: n = 55
Method: (§1) Antimicrobial activity was determined in a second study by […] using the CLSI recommended procedure in serial two-fold dilutions and the minimum inhibitory concentration (MIC) was determined as the lowest concentration of the compound that inhibited visible growth.
(§2) MICs were determined according to CLSI agar dilution guidelines.

E. coli = test: MIC by CLSI agar dilution, Example 1 Method 2; type: cell-based, Escherichia coli
Method: as §1, §2

Providencia rettgeri = test: MIC, Example 5 Method 1; type: cell-based; conditions: at least one isolate tested
[1] = system: S. lugdenensis, S. agalactiae, Streptococcus group G and Streptococcus group F; test: MIC by CLSI broth microdilution, Example 5 second study; type: cell-based; conditions: at least one strain of every organism listed
Excerpt: A second study tested gepotidacin by CLSI broth microdilution against bacterial isolates collected from patients with acute bacterial skin and soft tissue infections between 2013-2014.
Amoxicillin/clavulanic acid, linezolid, fusidic acid, ceftriaxone, ceftaroline, vancomycin, penicillin, quinupristin/dalfopristin, erythromycin, clindamycin, meropenem, tetracycline, chloramphenicol, flucloxacillin, telavancin, daptomycin, trimethoprim/sulfamethoxazole, gentamicin, levofloxacin, tigecycline and cefuroxime were included as comparators. MICs were determined by broth microdilution according to CLSI methods.
In addition, MICs were determined by broth microdilution according CLSI methods and all the comparators from the list above were evaluated against gram-positive aerobe organisms selected from S. lugdenensis, S. agalactiae, Streptococcus group G and Streptococcus group F.

K. pneumoniae = test: Phase IIa baseline uropathogen susceptibility testing (CLSI broth microdilution); type: cell-based, Klebsiella pneumoniae; conditions: Klebsiella pneumoniae; Participant 7; read-out: GEP MIC
Method: (§3) This phase IIa single center study evaluated the safety, tolerability, pharmacokinetics, and efficacy of oral gepotidacin 1500 mg BID for 5 days in female subjects with acute cystitis. Clean catch mid-stream urine specimens were obtained for quantitative culture by standard methods. Urine samples were taken from all participants pre-treatment (baseline) and at all post-baseline visits. All urine samples were sent to a central laboratory (PPD Global Clinical Laboratories, Highland Heights, Ky., USA) for Gram stain, quantitative culture, pathogen identification and susceptibility testing. See FIG. 1 for participant disposition and study outline.
(§4) Susceptibility testing by CLSI broth microdilution and gradient diffusion (fosfomycin only) was conducted (CLSI, 2015, Methods for dilution antimicrobial susceptibility tests for bacteria that grow aerobically; approved standard-tenth edition; and CLSI, 2018. Performance Standards for Antimicrobial Susceptibility Testing; Twenty-seventh Informational Supplement M100-S28). Inclusion in the microbiological intent-to-treat population (micro-ITT), required growth of a qualifying baseline uropathogen (≥10^5 CFU/mL). See FIG. 2 for the baseline algorithm.

[2] = system: coagulase-negative staphylococci; test: MIC by CLSI broth microdilution, Example 5 Method 1; type: cell-based
Method: Gepotidacin was tested against 101 coagulase-negative staphylococci and 105 viridans streptococci in serial two-fold dilutions and the minimum inhibitory concentration (MIC) was determined as the lowest concentration of the compound that inhibited visible growth. All of the clinical isolates were collected in 2009-2012 from patient infections from North America, Europe, Latin America and Asia-Pacific medical centers and were mainly obtained from patients with documented nosocomial and community-acquired respiratory tract infections, bloodstream infections and skin and skin structure infections. Ceftriaxone, meropenem, penicillin, levofloxacin, moxifloxacin and linezolid were included as comparators when testing the viridans streptococci isolates. Oxacillin, levofloxacin, moxifloxacin and linezolid, were included as comparators when testing the coagulase-negative staphylococci isolates. MICs were determined by broth microdilution according to CLSI methods.

Bacteroides stercoris = test: MIC by broth microdilution, drug-resistant isolates; type: cell-based; conditions: ceftriaxone R, 2 isolates
Method: (§5) Additional analysis was performed from the results of the study described in Method 1 above, to determine the in vitro activity of gepotidacin against gram-negative and gram-positive anaerobic organisms with resistance to ceftriaxone, clindamycin, imipenem, metronidazole, moxifloxacin and piperacillin/tazobactam.

Bacteroides spp = test: as above; type: cell-based
Method: as §5

Bacteroides ovatus = test: as above; type: cell-based
Method: as §5

Bacteroides caccae = test: as above; type: cell-based; conditions: 1 isolate
Method: as §5

Bacteroides fragilis = test: as above; type: cell-based
Method: as §5

Bacteroides vulgatus = test: as above; type: cell-based
Method: as §5

Bacteroides uniformis = test: as above; type: cell-based
Method: as §5

[3] = system: Bacteroides thetaiotaomicron; test: as above; type: cell-based
Method: as §5

A. baumannii = test: MIC by CLSI agar dilution, Example 1 Method 2; type: cell-based, Acinetobacter baumannii; conditions: n = 60
Method: as §1, §2

Acinetobacter pittii = test: Phase IIa non-qualifying baseline uropathogen MIC; type: cell-based; conditions: baseline uropathogen recovered at <10^5 CFU/mL
Method: as §3, §4

[4] = system: Citrobacter freundii complex; test: Phase IIa non-qualifying baseline uropathogen MIC; type: cell-based; conditions: baseline uropathogen recovered at <10^5 CFU/mL
Method: as §3, §4

## O=c1ccc2ncc(=O)n3c2n1C[C@H]3CN1CCC(NCc2cc3c(cn2)OCCC3)CC1 [gepotidacin, (2R)-2-({4-[(3,4-dihydro-2H-pyrano[2,3-c]pyridin-6-ylmethyl)amino]-1-piperidinyl}methyl)-1,2-dihydro-3H,8H-2a,5,8a-triazaacenaphthylene-3,8-dione]
P. aeruginosa; Pseudomonas aeruginosa
  MIC50: 8 µg/mL (≈ 17.8 µM)
  MIC90: 32 µg/mL (≈ 71.3 µM)
P. aeruginosa
  Number of Isolates at Gepotidacin MIC 0.5 mg/L: 1
  Number of Isolates at Gepotidacin MIC 1 mg/L: 2
  Number of Isolates at Gepotidacin MIC 2 mg/L: 4
  Number of Isolates at Gepotidacin MIC 4 mg/L: 18
  Number of Isolates at Gepotidacin MIC 8 mg/L: 15
  Number of Isolates at Gepotidacin MIC ≥16 mg/L: 15
E. coli; 254 isolates
  MICs ranged: ≤0.06 to 64 mg/L
E. coli; 254 isolates, enriched for drug resistance
  % of the tested isolates inhibited at ≤8 mg/L: 96.1%
E. coli; Escherichia coli, n = 254
  MIC50: 2 µg/mL (≈ 4.46 µM)
  MIC90: 8 µg/mL (≈ 17.8 µM)
E. coli; KPC producing E. coli
  % of isolates inhibited at ≤8 mg/L: 94.6%
E. coli; NDM producing E. coli
  % of isolates inhibited at ≤8 mg/L: 100%
E. coli; OXA-48-like producing E. coli
  % of isolates inhibited at ≤8 mg/L: 92.1%
E. coli; QRDR data for 188 of 254 isolates
  Effect of levofloxacin non-susceptibility or QRDR substitutions in GyrA and ParC on activity: unaffected
E. coli; n = 254
  Number of Isolates at Gepotidacin MIC 0.5 mg/L: 22
  Number of Isolates at Gepotidacin MIC 1 mg/L: 56
  Number of Isolates at Gepotidacin MIC 2 mg/L: 92
  Number of Isolates at Gepotidacin MIC 4 mg/L: 37
  Number of Isolates at Gepotidacin MIC 8 mg/L: 33
  Number of Isolates at Gepotidacin MIC ≤0.25 mg/L: 4
  Number of Isolates at Gepotidacin MIC ≥16 mg/L: 10
Providencia rettgeri
  MIC: 8 µg/mL (≈ 17.8 µM)
[1]
  MIC: ≤ 2 µg/mL
K. pneumoniae
  MIC: 4 µg/mL (≈ 8.92 µM)
[2]; 101 isolates
  MIC90: 0.5 µg/mL (≈ 1.11 µM)
[2]; coagulase-negative staphylococci and viridans streptococci, except meropenem and moxifloxacin against viridans group streptococci
  MIC90 fold lower than the comparators tested: 2 to 64 fold
Bacteroides stercoris
  Gepotidacin MIC range: ≤0.015 to 0.5 µg/mL
Bacteroides spp; ceftriaxone R, 61 isolates
  Gepotidacin MIC range: ≤0.015 to 6 µg/mL
Bacteroides spp; clindamycin R, 51 isolates
  Gepotidacin MIC range: 0.06 to 16 µg/mL
Bacteroides spp; moxifloxacin R, 35 isolates
  Gepotidacin MIC range: 0.25 to 8 µg/mL
Bacteroides ovatus; ceftriaxone R, 5 isolates
  Gepotidacin MIC range: 0.5 to 2 µg/mL
Bacteroides ovatus; clindamycin R, 5 isolates
  Gepotidacin MIC range: 0.25 to 4 µg/mL
Bacteroides ovatus; moxifloxacin R, 3 isolates
  Gepotidacin MIC range: 0.5 to 4 µg/mL
Bacteroides caccae; ceftriaxone R
  Gepotidacin MIC range: 0.25 µg/mL
Bacteroides caccae; clindamycin R
  Gepotidacin MIC range: 4 µg/mL
Bacteroides caccae; moxifloxacin R
  Gepotidacin MIC range: 0.25 µg/mL
Bacteroides fragilis; ceftriaxone R, 24 isolates
  Gepotidacin MIC range: 0.25 to 16 µg/mL
Bacteroides fragilis; clindamycin R, 23 isolates
  Gepotidacin MIC range: 0.06 to 16 µg/mL
Bacteroides fragilis; imipenem R, 2 isolates
  Gepotidacin MIC range: 1 to 4 µg/mL
Bacteroides fragilis; moxifloxacin R, 20 isolates
  Gepotidacin MIC range: 0.25 to 8 µg/mL
Bacteroides fragilis; pip/tazo R, 2 isolates
  Gepotidacin MIC range: 1 to 4 µg/mL
Bacteroides vulgatus; ceftriaxone R, 7 isolates
  Gepotidacin MIC range: 0.06 to 4 µg/mL
Bacteroides vulgatus; clindamycin R, 4 isolates
  Gepotidacin MIC range: 0.06 to 0.5 µg/mL
Bacteroides vulgatus; moxifloxacin R, 3 isolates
  Gepotidacin MIC range: 0.25 to 4 µg/mL
Bacteroides uniformis; ceftriaxone R, 2 isolates
  Gepotidacin MIC range: 0.5 to 2 µg/mL
Bacteroides uniformis; moxifloxacin R, 1 isolate
  Gepotidacin MIC range: 0.5 µg/mL
[3]; ceftriaxone R, 20 isolates
  Gepotidacin MIC range: 0.5 to 8 µg/mL
[3]; clindamycin R, 18 isolates
  Gepotidacin MIC range: 0.5 to 8 µg/mL
[3]; moxifloxacin R, 7 isolates
  Gepotidacin MIC range: 0.5 to 8 µg/mL
A. baumannii; Acinetobacter baumannii
  MIC50: 32 µg/mL (≈ 71.3 µM)
  MIC90: 64 µg/mL (≈ 143 µM)
A. baumannii
  Number of Isolates at Gepotidacin MIC 8 mg/L: 7
  Number of Isolates at Gepotidacin MIC ≥16 mg/L: 53
Acinetobacter pittii
  MIC: 1 µg/mL (≈ 2.23 µM)
[4]
  MIC: 1 µg/mL (≈ 2.23 µM)
